Data from PubChem BioAssay (NCI).
Where “and” joins values, the source holds several entries; their conditions need not be identical. Equal entries are not always repeated.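 These data come from cells grown in 96-well plates and exposed to compound for 48 hours at five concentrations. GI50: concentration for 50% inhibition of growth. TGI is the concentration that stops growth completely.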

What was measured:
Assay in all cases: growth of human tumour cells (NCI), 48 h
[1] = test system: A498 renal
[2] = test system: A549 NSCLC
[3] = test system: HOP-62 NSCLC
[4] = test system: KM12 colon
[5] = test system: M14 melanoma
[6] = test system: NCI-H23 lung
[7] = test system: PC-3 prostate
[8] = test system: RXF 393 renal
[9] = test system: SNB-19 CNS
[10] = test system: U251 CNS

SMILES | GI50 [1] [µM] | TGI [1] | GI50 [2] [µM] | TGI [2] | GI50 [3] [µM] | TGI [3] | GI50 [4] [µM] | TGI [4] | GI50 [5] [µM] | TGI [5] | GI50 [6] [µM] | TGI [6] | GI50 [7] [µM] | TGI [7] | GI50 [8] [µM] | TGI [8] | GI50 [9] [µM] | TGI [9] | GI50 [10] [µM] | TGI [10]
COc1cc(C(=O)c2ccc3c(c2)OCO3)cc(OC)c1OC | 1.75 | 7.93 µM | 6.03 | > 100 µM | 3.34 | > 100 µM | 0.656 | 80.8 µM | 1.2 | > 100 µM | 4.93 | > 100 µM | 4.12 | > 100 µM | 2.88 | 17.1 µM | 5.07 | > 100 µM | 2.81 | > 100 µM
COC(=O)NC1C(C)OC(OC2C/C=C(/C)C3C=CC4C(OC5CC(OC6CC(O)C(OC7CC(O)C(OC)C(C)O7)C(C)O6)C(O)C(C)O5)C(C)CC(C)C4C3(C)/C(O)=C3\C(=O)OC4(CC(C)C(CO)=CC4/C=C\2C)C3=O)CC1(C)[N+](=O)[O-] (stereo not given) | 9.82 | 22.8 µM and 29.8 µM | 25.7 | 50 µM and 58.5 µM | 9.62 | 18.4 µM and 46.3 µM | 9.15 | 16.6 µM and 25.2 µM | 16.9 | 17.2 µM and 32.7 µM | 8.68 | 17.2 µM and 27.8 µM |  | 50 µM | 8.97 | 21.4 µM and 30.7 µM | 15.9 | 50 µM and 52.4 µM |  | 32.2 µM and 27.6 µM
Oc1ccccc1-c1nn(CNc2cccc(Cl)c2)c(=S)o1 | 60.1 | > 100 µM | 74.8 | > 100 µM | 90.8 | > 100 µM | 37.2 | > 100 µM | 35.8 | > 100 µM | 22.8 | 71.8 µM | 32.9 | > 100 µM | 82.4 | > 100 µM | > 100 | > 100 µM | 4.91 | 39.6 µM
C1=Cc2ccccc2Nc2ccccc21 | > 100 | > 100 µM | > 100 | > 100 µM | > 100 | > 100 µM | > 100 | > 100 µM | > 100 | > 100 µM | > 100 | > 100 µM | > 100 | > 100 µM | > 100 | > 100 µM | > 100 | > 100 µM | > 100 | > 100 µM
CN(C)c1ccc(N2Cc3ccccc3OC3=C2C(=O)c2c(O)ccc(O)c2C3=O)cn1 | 2.15 | 5.8 µM | 2.32 | 6.03 µM | 1.56 | 3.86 µM | 1.03 | 3.08 µM | 0.241 | 0.713 µM | 0.277 | 0.927 µM | 0.221 | 0.867 µM | 0.152 | 0.318 µM | 0.563 | 2.24 µM | 0.311 | 1.2 µM
CCN(CC)CCCC(C)Nc1cnc(C(=O)Nc2ccc(Cl)c3cccnc23)cn1 (stereo not given) | 5.48 | 19.5 µM | 2.71 | 11.8 µM | 1.77 | 3.61 µM | 3.79 | 13.3 µM | 1.79 | 3.59 µM | 5.04 | 19.6 µM | 1.32 | 2.82 µM | 1.64 | 3.36 µM | 3.37 | 13.9 µM | 1.93 | 3.83 µM
CCOc1cccc(/C=N/NC(=O)c2ccc(Nc3ccnc(C(F)(F)F)c3)cc2)c1O | 4.65 | > 58 µM | 2.13 | > 69.1 µM | 2.23 | > 78.5 µM | 1.62 | > 58.4 µM | 1.19 | > 24.6 µM | 2.26 | 38.6 µM | 0.607 | > 33.8 µM | 2.97 | > 49.2 µM | 4.69 | > 100 µM | 0.906 | > 58 µM
COc1ccc2c(c1)C(=O)/C(=C/c1cccc(OCC(=O)Nc3nc4c(s3)CCCC4)c1)O2 | 14.3 | 27.7 µM | 3.31 | 18.5 µM | 0.29 | 10.4 µM | 0.72 | 4.09 µM | 1.81 | 4.51 µM | 0.636 | 5.62 µM | 0.285 | 1.01 µM | 0.583 | 1.58 µM | 13.9 | 30.4 µM | 0.772 | 4.97 µM
O=c1c2cccc(Cl)c2sc2c(NCCCNCCO)nc3ccccc3c12 | 5.64 | 19.3 µM | 1.31 | 3.39 µM | 2.87 | 17.1 µM | 1.87 | 3.73 µM | 1.79 | 3.54 µM | 3.62 | 16.5 µM | 3.45 | 15.5 µM | 1.69 | 4 µM | 5.8 | 20 µM | 1.84 | 4.13 µM
Cc1nn(-c2nc3ccccc3s2)c(C)c1Oc1ccccc1O | 11.4 | 23.6 µM | 6.14 | 22.5 µM | 10.6 | 23.7 µM | 6.99 | 20.1 µM | 11.8 | 24.8 µM | 12.3 | 26.3 µM | 6.58 | > 100 µM | 3.09 | 8.38 µM | 6.77 | 20.3 µM | 1.39 | 16.3 µM
CC1=C[C@H]2c3c(c(O)c(O)c4oc5c(C)cccc5c(=O)c34)[C@H](c3cc(O)c(O)c4oc5c(C)cccc5c(=O)c34)[C@H]2C(C)(C)C1 | 1.85 | 5.35 µM | 1.04 | 4.85 µM | 1.15 | 3.44 µM | 2.56 | 8.33 µM | 1.52 | 5.87 µM | 1.24 | 3.42 µM | 1.51 | 10.2 µM | 1.22 | 3.26 µM | 2.27 | 11.2 µM | 1.23 | 7.09 µM
CCCCCCCCCCCCCC(=O)O[C@H]1CC[C@H](NC(=O)[C@H](OC)[C@H](O)[C@@H](O)[C@H](O)/C=C/C(C)C)C(=O)NC1 |  | 51.2 µM and > 100 µM |  | 7.34 µM and 13.8 µM | < 0.001 | 51.2 µM and 34 µM |  | 1.19 µM and 7.64 µM |  | 0.345 µM and 0.556 µM and 0.129 µM |  | 4.77 µM and 0.5 µM | 0.0152 | 51.2 µM and 12.7 µM |  | 0.283 µM |  | 51.2 µM and 25.9 µM |  | 18.6 µM and 11 µM
N#C/C(=C\c1ccc(-c2ccc(Cl)cc2)o1)C(=O)Nc1ncc(Cc2ccc(Cl)cc2)s1 | 1.58 | 4.19 µM | 1.33 | 3.05 µM | 2.26 | 6.33 µM | 1.83 | 6.56 µM | 2.04 | 6.08 µM | 1.82 | 4.17 µM | 1.5 | 3.67 µM | 2.32 | 6.85 µM | 2.77 | 12.8 µM | 1.09 | 2.43 µM
O=C(Nc1ccccc1O)c1cccc(NC2=C(Cl)C(=O)N(Cc3ccccc3)C2=O)c1 | 14.2 | 27.7 µM | 12.4 | 24.8 µM | 7.98 | 20.6 µM | 12.9 | 26.6 µM | 4.35 | 11.3 µM | 3.44 | 9.38 µM | 13.7 | 26.6 µM | 1.89 | 5.28 µM | 13.9 | 37.5 µM | 3.38 | 13.9 µM
COc1cc2nc(-c3cnc(N(C)C)nc3)nc(NC3CCN(Cc4ccccc4)CC3)c2cc1OC | 1.57 | 2.94 µM | 0.351 | 1.79 µM | 1.69 | 3.48 µM | 1.72 | 3.53 µM | 1.5 | 3.06 µM | 1.69 | 4.11 µM | 1.46 | 3.09 µM | 1.63 | 3.49 µM | 1.2 | 3.1 µM | 0.222 | 0.573 µM
C[n+]1c(/C=C\c2ccc(Cl)cc2)ccc2ccccc21 | 4.02 | 91.3 µM | 1.04 | > 100 µM | 29.2 | > 100 µM | 3.6 | 15 µM | 12.9 | 46.7 µM | 31 | > 100 µM | 13.3 | > 100 µM | 31.8 | 98.3 µM | 4.49 | > 100 µM | 3.7 | > 100 µM
CC1=NN(c2ccccc2)C(=O)C1N=Nc1ccc([As](=O)(O)O)c(O)c1 (stereo not given) |  | > 100 µM |  | > 100 µM |  | > 100 µM |  | > 100 µM |  | > 100 µM |  | > 100 µM |  | > 100 µM |  | > 100 µM |  | > 100 µM |  | > 100 µM
COc1ccc2nc(-c3cc(-c4cc(OC)c(OC)c(OC)c4)n[nH]3)[nH]c2c1 | 2.23 | 10.2 µM | 1.63 | 5.25 µM | 2.02 | 5.77 µM | 1.7 | 3.69 µM | 1.66 | 4.31 µM | 1.34 | 4.91 µM | 1.03 | 4.1 µM | 2.49 | 12.3 µM | 2.98 | 14.1 µM | 2.9 | 11.5 µM
